Data from PubChem BioAssay (NCI).
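Interpolation was linear, between the two tested concentrations surrounding the appropriate level; five concentrations were tested over 48 hours in 96-well plates. GI50 marks 50% less growth. At the TGI there is no net growth.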

Tests used:
Test in all cases: growth of human tumour cells (NCI), 48 h
[1] = tested on: MDA-MB-435
[2] = tested on: SK-MEL-2 melanoma
[3] = tested on: COLO 205 colon
[4] = tested on: HOP-62 NSCLC
[5] = tested on: K-562 leukemia
[6] = tested on: RPMI-8226 leukemia
[7] = tested on: SF-295 CNS
[8] = tested on: LOX IMVI melanoma

Structure (SMILES) | GI50 [1] [µM] | TGI [1] [µM] | GI50 [2] [µM] | TGI [2] [µM] | GI50 [3] [µM] | TGI [3] [µM] | GI50 [4] [µM] | TGI [4] [µM] | GI50 [5] [µM] | TGI [5] [µM] | GI50 [6] [µM] | TGI [6] [µM] | GI50 [7] [µM] | TGI [7] [µM] | GI50 [8] [µM] | TGI [8] [µM]
CC(=O)Oc1ccccc1C(=O)N=C1[Se]CCN1C(=O)c1ccccc1OC(C)=O | 0.462 | 1.87 | 1.42 | 3.91 | 1.84 | 4.07 | 0.546 | 1.88 | 0.94 | > 100 | 2.94 | 8.46 | 1.43 | 2.8 |  | 
O=C(CCCN1CC=C(n2c(=O)[nH]c3ccccc32)CC1)c1ccc(F)cc1 | 18.1 | 49.5 | 19.5 | 70.9 | 25 | 75.5 | 57.6 | > 100 | 29.3 | > 100 | 30.4 | > 100 |  |  | 26 | > 100
CC(C)c1ccccc1S(=O)c1ccccc1C(C)(C)O (stereo unspecified) |  | > 100 |  | > 100 |  | > 100 |  | 48.7 |  | > 100 |  | > 100 |  | 48.1 |  | > 100
Cc1cc(NC(=O)c2ccc(C)c(Nc3nccc(-c4cccnc4)n3)c2)cc(-n2cnc(C)c2)c1 | 2.12 | 8.76 | 5.03 | 12.9 | 2.4 | 7.23 | 1.68 | 6.7 | 0.0915 | 4.03 | 6.45 | 27.6 | 3.07 | 12.2 | 4.09 | 13
COc1ccc(-c2cc(-c3cccn3C)c(C#N)c(N)n2)cc1OC | > 100 | > 100 | > 100 | > 100 | > 100 | > 100 |  |  | 55.6 | > 100 | 38.5 | > 100 | > 100 | > 100 | > 100 | > 100
COc1cc2c(cc1OC)C13CCN4CC5=CCOC6CC(=O)N2C1C6C5CC43O (stereo unspecified) |  | > 100 |  | > 100 |  | > 100 |  |  |  | > 100 |  | > 100 |  | > 100 |  | > 100
CSC1(CC(=O)N(C)C)C(=O)Nc2ccccc21 (stereo unspecified) |  | > 100 |  | > 100 |  | > 100 |  | > 100 |  | > 100 |  | > 100 |  | > 100 |  | > 100
Cc1sc2nc(NCCc3c[nH]c4ccc(Cl)cc34)[nH]c(=O)c2c1C | 3.31 | 11.3 | 2.62 | 9.29 | 1.74 | 3.77 | 2.52 | 10.4 | 3.03 | 10.7 | 2.45 | 7.9 | 3.53 | 13.4 | 1.87 | 3.68
COc1ccc(-n2cc(-c3ccc(Cl)c(Cl)c3)nc2SCc2cccc(C#N)c2)cc1 | 12.5 | > 100 | > 100 | > 100 | 51.7 | > 100 | 24.7 | > 100 | > 100 | > 100 | > 100 | > 100 | 22.2 | > 100 | 13.9 | > 100
O=C(N/N=C\c1cc(Br)ccc1O)c1ccncc1 | 5.36 | > 100 | 4.29 | > 100 | 1.23 | 16.8 | 1.57 | 66.2 | 3.37 | > 100 | 3.08 | > 100 | 3.47 | > 100 | 1.07 | 94.7
Nc1nc(Br)nc2c1ncn2C1CC(O)C(CO)O1 (stereo unspecified) | 11.6 | > 100 | > 100 | > 100 | 13.7 | > 100 | 4.68 | > 100 | > 24 | > 100 | > 25 | > 100 | 18.4 | > 76.4 | 29.8 | > 100
Fc1ccc(Nc2cc(-n3nnc4ccccc43)nc3ccccc23)cc1 | > 50.7 | > 100 | 98.8 | > 100 | 5.74 | > 100 | 13.8 | > 34 | > 100 | > 100 | 19.3 | > 100 | 13.4 | 41.5 | 37.7 | > 100
O=C(O)c1c(-c2nccc3ccccc23)[nH]c(-c2ccccc2)c1S(=O)(=O)O |  | > 100 |  | > 100 |  | > 100 |  | > 100 |  |  |  | > 100 |  | > 100 |  | > 100
O=C(O)c1cc(O)c2c(c1)C(C1c3cc(C(=O)O)cc(O)c3C(=O)c3c(OC4OC(CO)C(O)C(O)C4O)cccc31)c1cccc(OC3OC(CO)C(O)C(O)C3O)c1C2=O (stereo unspecified) | > 100 | > 100 | > 100 | > 100 | > 100 | > 100 | > 100 | > 100 | > 100 | > 100 |  |  | > 100 | > 100 | > 100 | > 100
CN(C)c1ccc2nc3ccc(=O)cc-3sc2c1 | 0.31 | 0.985 | 3.51 | 25.8 | 0.38 | 3.81 | 0.763 | > 56.9 | 0.919 | > 100 | 0.199 | 53 | 1.52 | 10.9 | 0.633 | > 63.8
COc1ccc(/C=c2/sc3n(c2=O)C(c2ccc(OC)c(OC)c2)C2=C(N=3)c3cc(F)ccc3OC2)cc1 (stereo unspecified) | 14.1 | 41.1 | > 45.2 | > 92.4 | 30.1 | > 57.1 | 37.7 | > 100 | 19.9 | > 100 | > 25 | 99.7 | 15.7 | 54.1 | 23 | 50.7
O=C(O)c1cccc(OCCO)c1 |  | > 100 |  | > 100 |  | > 100 |  | > 100 |  | > 100 |  | > 100 |  | > 100 |  | > 100
Cc1c[n+](Cc2ccc3ccccc3c2)cn1Cc1ccc2ccccc2c1 | 1.28 | 3.03 | 1.85 | 3.68 | 1.12 | 2.62 | 1.61 | 3.8 | 1.38 | 4.59 | 0.595 | 2.49 | 1.95 | 5.56 | 1.34 | 2.7

Structure (SMILES) | GI50 [1] [µM] | TGI [1] [µM] | GI50 [2] [µM] | TGI [2] [µM] | GI50 [3] [µM] | TGI [3] [µM] | GI50 [4] [µM] | TGI [4] [µM] | GI50 [5] [µM] | TGI [5] [µM] | GI50 [6] [µM] | TGI [6] [µM] | GI50 [7] [µM] | TGI [7] [µM] | GI50 [8] [µM] | TGI [8] [µM]
Cc1[nH][nH]c(=O)c1C=Nc1ccc(-c2nc3ccccc3[nH]2)cc1 | 16.8 | 33.7 | 23.3 | 48 | 19.5 | 48.1 |  |  | 27.4 | 87.2 | 38.2 | > 100 | 18.4 | 42.3 | 16.8 | 30.5
O=c1[nH]c2cc(Cl)ccc2n1C1CCN(CCCC(c2ccc(F)cc2)c2ccc(F)cc2)CC1 | 1.32 | 2.63 | 1.7 | 3.35 | 1.23 | 2.6 | 1.55 | 3.05 | 2.98 | > 100 | 0.711 | 3.6 |  |  | 1.56 | 2.89
Cc1cn2c(/C=C3/C(=O)Nc4ccccc43)c(-c3ccc(Cl)cc3)nc2s1 | 8.07 | 14.8 | 30.8 | > 50 | 10.4 | 22.2 | 8.46 | 15.3 | 46.5 | > 50 | 12.3 | 39.2 | 9.22 | 17.4 | 5.84 | 12
CN(C)Cc1c[nH]c2c1C(=O)c1c(c(O)c3ccccc3c1O)C2=O | 10.6 | 23 |  |  | 0.0386 | > 100 | 10.7 | 27.9 | 2.24 | > 100 | 4.16 | 22.2 | 3.22 | 17.1 | 6.32 | 19.5
Cc1c(C2Nc3ccccc3C2C)[nH]c2ccccc12 (stereo unspecified) | 10.6 | 24.6 |  |  | 10.5 | 22.5 | 12.1 | 26.1 | 0.89 | 50.4 | 5.29 | 52.3 | 11.5 | 28.1 |  | 
Cc1ccc(N(CSc2ccc(Cl)cc2)CSc2ccc(Cl)cc2)cc1 | 0.927 | 9.38 | 3.76 | 25 | 1.84 | 3.38 | 2.71 | 16.4 |  |  | 2.13 | 6.46 | 0.375 | 2.6 | 0.189 | 0.694
O=C(CN(C1CCCCC1)C1CCCCC1)Nc1ccc(S(=O)(=O)c2ccc(NC(=O)CN(C3CCCCC3)C3CCCCC3)cc2)cc1 | 0.873 | 2.35 | 1.35 | 3.5 | 0.28 | 0.841 | 1.2 | 3.56 | 0.277 | 1.38 |  |  | 1.5 | 2.96 | 0.239 | 0.845
CCN1C(=O)N(CC)C2C1NC(=S)N2/N=C/C=C/c1cccs1 (stereo unspecified) |  |  | 0.529 | > 100 | 0.267 | 1.17 | 0.414 | > 100 | 0.263 | > 100 | 0.413 | > 38.9 | 0.258 | > 100 | 0.55 | > 100
COC(COC(=O)N1CCN(C=O)CC1)C1=C(N2CC2)C(=O)C(C)=C(N2CC2)C1=O (stereo unspecified) |  | 0.976 |  |  |  | 0.897 |  | 6.57 |  | > 100 |  | 1.52 |  | 4.55 |  | 0.613
O/N=C\c1c(O)ccc2ccccc12 |  | > 100 |  |  |  | > 100 |  | > 100 |  | > 100 |  | > 100 |  | > 100 |  | > 100
C#C[C@]1(O)CC[C@H]2[C@@H]3CC=C4c5sc(Nc6ccccc6)nc5CC[C@]4(C)[C@H]3CC[C@@]21C | 3 | 11.2 | 1.61 | 5.75 | 2.18 | 5.39 | 2.19 | 10.7 | 1.86 | > 100 | 0.309 | 1.6 | 0.244 | 0.649 |  | 
CCCS(=O)(=O)Nc1ccc(Nc2c3ccccc3nc3ccccc23)c(OC)c1 |  | 26.3 |  | 7.7 |  | 20.8 |  | 5.72 |  | > 42.7 |  |  |  | 8.31 |  | 4.9
O=C(O)c1ccccc1-c1ccccc1C(=O)Nc1ccc2c(c1)Cc1cc(F)ccc1-2 |  | > 100 |  | 37.9 |  | 32.7 |  | 87.4 |  |  |  | 82.8 |  | 94.2 |  | 77.7
CC(=O)Oc1ccccc1C(=O)N=C1[Se]CCCN1C(=O)c1ccccc1OC(C)=O | 1.98 | 4.76 | 2.38 | 5.09 | 3.08 | 10.1 | 1.61 | 3.01 | 3.32 | 12.6 | 2.42 | 6.13 |  |  | 1.7 | 4.37
O=C1c2ccn(CCCCNC(CO)(CO)CO)c2C(=O)c2c1c(O)c1ccccc1c2O | 0.992 | 2.42 | 31.6 | > 100 | 0.912 | > 23.6 | 3.82 | 8.77 |  |  | 1.21 | 11 | 0.719 | 2.24 |  | 
Cc1[nH]n(-c2cccc(Cl)c2)c(=O)c1/C=C1\C=Nc2ccc(Br)cc21 | 6.78 | > 100 | 10.5 | 24.6 | 2 | 4.29 | 2.33 | 5.14 |  |  | 3.08 | 22.6 | 3.6 | 14.2 | 5.48 | 38
c1ccc2c3ccn4cc5c(cc4c-3nc2c1)CCCC5 | 1.56 | 4.19 | 3.05 | 10.2 | 2.37 | 6.16 | 3.5 | 13.1 | 1.95 | 12.6 | 5.11 | > 100 | 2.37 | 10.5 |  | 
